These results are taken from paper PMC12612973, “Inhibition of Human Amylin Aggregation: In Silico and In Vitro Studies” (ACS Omega, 2025).

For experiment [1], the target named is T1, human amylin (hIAPP) (Homo sapiens, UniProt P10997).
T1 construct: purchased Bachem USA
T1 sequence (P10997 34-70 limits assumed): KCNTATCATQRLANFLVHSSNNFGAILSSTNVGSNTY
Nature of the experiment: Dynamic light scattering (DLS) assay of amylin aggregation. In kind it is biochemical. The settings on record: compound 10 μM, amylin 15 μM, 36 h incubation, 3 trials; read-out: DLS inhibition % (mean ± SEM). The protocol: (§1) A stock solution of amylin (1 mM) (purchased from Bachem USA), peptide sequence: […] amide (with disulfide bond between Cys2 and Cys7), was prepared in 100% hexafluoroisopropyl alcohol (HFIP) (purchased from Sigma-Aldrich) and stored at −20 °C. , Aliquots of amylin peptide were filtered through a 0.22 μm filter from the stock solution and freeze-dried. For kinetic experiments, 15 μM of amylin was prepared in 50 mM Tris-HCl buffer (pH 7.4), as investigated in previous studies by Chaari et al., , Samples of amylin were prepared in the presence or absence of inhibitors. Each compound was dissolved in DMSO and further diluted with the buffer used to solubilize the amylin. The final mixture contained 15 μM amylin, 10 μM of the test compound, 2% DMSO or 15 μM amylin, and 2% DMSO without the compound (negative control). Also 15 μM amylin, 10 μM of oleuropein aglycone and 2% DMSO was used as a positive control. The prepared solutions were incubated under physiological conditions (pH 7.4 and 37 °C) for amylin aggregation. Samples were incubated for 36 h to test for amylin aggregation, and measurements were conducted at different time points.
DLS (Zetasizer, Malvern) was used at a wavelength of 633 nm to measure the average diffusion coefficient distribution of amylin particles and the aggregation percentage. Samples were diluted 10-fold, and 50 μL was placed into a 96-well plate. The total light scattering intensity at a 90° angle was collected using a 10 s averaging acquisition time. Particle translational diffusion coefficients were calculated from autocorrelated light intensity data (usually 30–40 points) and converted to the hydrodynamic radius (R h) using the Stokes–Einstein equation. A distribution plot of intensity versus R h was calculated using the Sedfit 9.3 analysis software, and intensity-weighted mean R h values were obtained from each peak.

In the next experiment the test system is Aβ. Details: method as in Panek et al. The settings on record: based on ThT assay results; ref Panek et al.; read-out: IC50 of Aβ aggregation inhibition; cited from earlier work.
In experiment [2] the target is T1, human amylin (hIAPP). Nature of the experiment: Thioflavin T (ThT) fluorescence assay of amylin aggregation. The format is biochemical. The note with it: for ThT inhibition % (mean ± SEM): compound 10 μM, amylin 15 μM, 36 h incubation, 3 trials; for inhibition at 10 µM: read-out: ThT inhibition % (mean ± SEM), compound 10 μM, amylin 15 μM, 36 h incubation, 3 trials. The protocol:
as §1
Amylin aggregation was monitored by characteristic changes in Thioflavin T (ThT) fluorescence intensity. A ThT stock solution (15 μM) was prepared in deionized water at pH 7.4. The amylin samples were mixed with the ThT solution and allowed to incubate. ThT fluorescence was measured using the PerkinElmer model LS 55 fluorescence spectrophotometer (PerkinElmer, USA), with an excitation wavelength of 440 nm and an emission wavelength of 480 nm. ,− The emission and excitation slits were set to 5 nm, and a 1 cm cuvette was used for all experiments. Nonspecific background fluorescence was subtracted from the samples using appropriate blanks in the absence of proteins. Each experiment was performed in triplicate.

For orientation: inhibition means the share of the control response that was lost under treatment. One may read the IC50 as the point on the concentration scale where inhibition reaches its midpoint.

As to `CC(C)(C)c1cccc(CNCC(O)CNCCC(c2ccccc2)c2ccccc2)c1` (centres unmarked) [Compound 18], the inhibition at 10 µM on human amylin (hIAPP) [1] was 99.2 ± 6.5%. In addition, the IC50 with Aβ is 3090 nM. For the same molecule, on human amylin (hIAPP) [2], the “ThT inhibition % (mean ± SEM)” value worked out at 91.5 ± 0.4% and the inhibition at 10 µM is > 88%.
Consider `CC(C)(C)c1cccc(CNCC(O)CCNCCC(c2ccccc2)c2ccccc2)c1` (centres unmarked) [Compound 22], for which the figures for the inhibition at 10 µM on human amylin (hIAPP) [1] and on human amylin (hIAPP) [2] were 99.2 ± 6.8% and > 88%, respectively. For the same molecule, the IC50 in the experiment with Aβ was 1220 nM. Also, the “ThT inhibition % (mean ± SEM)” value at human amylin (hIAPP) [2] was determined as 89.3 ± 0.3%.
